From ChEMBL document CHEMBL1145509, “Defining the molecular forces that determine the impact of neomycin on bacterial protein synthesis: importance of the 2'-amino functionality” (Antimicrob Agents Chemother, 2007)
Values after ≈ are worked out from the molar mass of the structure shown.

How the values were obtained:
Escherichia coli [1] = assay: Binding affinity to Escherichia coli 16S rRNA A-site model at Ec2AP1493 position assessed as two rotational correlation time by time resolved fluorescence anisotropy
Escherichia coli [2] = assay: Binding affinity to Escherichia coli 16S rRNA A-site model at Ec2AP1492 position assessed as two rotational correlation time by time resolved fluorescence anisotropy
Escherichia coli [3] = assay: Antibacterial activity against Escherichia coli DH5-alpha after 24 hrs by broth dilution assay; format: functional; details: DH5alpha
Escherichia coli [4] = assay: Binding affinity to Escherichia coli 16S rRNA A-site model at Ec2AP1493 position assessed as shorter rotational correlation time by time resolved fluorescence anisotropy
Escherichia coli [5] = assay: Binding affinity to Escherichia coli 16S rRNA A-site model at Ec2AP1492 position assessed as shorter rotational correlation time by time resolved fluorescence anisotropy
Escherichia coli [6] = assay: Antitranslation activity in Escherichia coli extract rRNA S30 assessed as inhibition of luciferase expression by transcription-translation assay; format: functional

Activity (Escherichia coli [1]) [nanoseconds] | Activity (Escherichia coli [2]) [nanoseconds] | MIC (Escherichia coli [3]) [µg/mL] | Activity (Escherichia coli [4]) [nanoseconds] | Activity (Escherichia coli [5]) [nanoseconds] | IC50 (Escherichia coli [6]) [nM] | Structure (SMILES)
3.95 | 4.38 | 119 (≈ 199 µM) | 0.65 | 0.76 | 1100 | NC[C@@H]1O[C@H](O[C@@H]2[C@@H](O)[C@@H]3OC4[C@@H](O)[C@H](N)C[C@H](N)[C@H]4O[C@H]4O[C@H](CN)[C@@H](O)[C@H](O)[C@H]4NC[C@H]2O3)[C@H](N)[C@@H](O)[C@@H]1O (some centres not stated)
5.32 | 7.32 | 1.9 (≈ 3.09 µM) | 1.96 | 2.35 | 50 | NC[C@@H]1O[C@H](O[C@@H]2[C@@H](O)[C@H](O[C@@H]3[C@@H](O)[C@H](N)C[C@H](N)[C@@H]3O[C@H]3O[C@H](CN)[C@@H](O)[C@H](O)[C@H]3N)O[C@@H]2CO)[C@H](N)[C@@H](O)[C@@H]1O
